Blank lines part the entries; values can stand above or below the compound they belong to. Residues, ends and D or L forms follow the SMILES beside them. *: point of attachment. Cbz = O=C(OCc1ccccc1)*; CH2F = FC*
Tests used:
HCT116 cells [1] = assay: KRS cleavage in cells (GFP-KRS, western blot with anti-GFP antibody); format: cell-based
Method: The cells were lysed with 50 mM Tris-HCl (pH 7.4) buffer containing 150 mM NaCl, 10 mM NaF, 12 mM beta-glycerophosphate, 1 mM EDTA, 1% NP-40, 10% glycerol, and protease inhibiting agent. Then, the supernatant was dissolved in SDS sample buffer, followed by separation using SDS-PAGE. For immunoblotting of endogenous KRS, anti-KRS antibody was used. Antibodies against Hsp90, syntenin-1, GFP, myc, caspase-3, -6, -8, -9, while syntenin-1 were purchased from Santa Cruz, and antibodies against alix were purchased from Cell Signaling. The anti-KRS antibody was manufactured by ordinary procedures in which KRS protein (Genbank Accession No. NP_005539.1) represented by SEQ ID NO: 2 was injected into New Zealand white rabbits to induce immune response and their antibodies were obtained.

HCT116 cells [2] = assay: KRS secretion test (TCA precipitation, western blot); format: cell-based; settings: for KRS secretion after caspase inhibitor treatment: HCT116 cells, serum starvation media, inhibitor 14 uM, 12 hr, anti-KRS antibody; for secretion of KRS variant compared with WT: myc-tagged variant transfected into HCT116 cells, serum starvation 12 hr, anti-myc antibody
Method: HCT116 cells were incubated in RPMI media containing 10% FBS (Hyclone), and were grown to 60% confluency on 60-mm dish. The cells were washed twice with PBS, incubated in serum-free RPMI media, and treated with 10 ng/ml TNF-α for 12 hr. The supernatant of the cell culture liquid was cautiously collected, followed by centrifugation at 500 g for 10 min. The supernatant thus obtained was again centrifuged at 10,000 g for 30 min, thereby removing membrane organelles. Then, 12% TCA was added to the supernatant, followed by culture at 4° C. for 12 hr, so the supernatant was subjected to precipitation treatment. After the precipitation treatment, the supernatant was centrifuged at 18,000 g for 15 min, and the upper part was then discarded and the remaining pellets were neutralized with 100 mM HEPES (pH 8.0), and then 5× sample buffer was added to perform separation using SDS-PAGE. The products separated by SDS-PAGE were western blotted using anti-KRS antibody.

HCT116 cells [3] = assay: KRS exosome secretion (exosomes isolated at 100,000 g, western blot); format: cell-based; settings: for exosome secretion of KRS variant compared with WT: myc-tagged variant transfected into HCT116 cells, serum starvation 12 hr
Method: HCT116 cells were incubated for a predetermined period of time in each treatment condition (especially, serum-starvation condition), and then the media were separated and consecutively centrifuged. Centrifugation was conducted three times at 500 g (10 min), 10,000 g (30 min), and 100,000 g (90 min) to form microvesicle pellets. The amount of microvesicle proteins was determined by using Bradford assay.

KRS and syntenin-1 [4] = assay: KRS-syntenin-1 interaction by immunoprecipitation and western blot; format: cell-based; settings: for binding of KRS variant with syntenin-1 compared with WT: myc-tagged variant transfected into cells, immunoprecipitation and western blot
Method: For immunoprecipitation, the cells were lysed at 4° C. in 50 mM HEPES (pH 7.4) buffer containing 150 mM NaCl, 0.5% NP-40, 2 mM EDTA, 5% glycerol and protease inhibiting agent (Calbiochem, San Diego, Calif., USA). Protein extracts were cultured together with protein-specific antibodies thereagainst with stirring at 4° C. In addition, protein G agarose was added. 4 hr after the addition of the protein G agarose, precipitate samples were obtained by centrifugation. The precipitate samples were washed three times for 5 min using cool lysis buffer. The precipitates were separated by SDS-PAGE.

KRS and syntenin-1 [5] = assay: Bimolecular fluorescence complementation (BiFC) assay; format: cell-based; settings: KRS-VN173 and syntenin-1-VC155 transfected cells, serum starvation 4 hr
Method: KRS-VN173 plasmid and syntenin-1-VC155 plasmid were all transduced in HCT116 cells, and the cells were incubated in starvation condition or serum-free condition for 4 hr. The HCT116 cells were located on 9-mm coverslip, fixed using 4% paraformaldehyde, and washed shortly with cool PBS. The cells were incubated in 5% BSA blocking buffer for 1 hr, and DAPI stained for 10 min. The cells were washed six times with cool PBS five times for 5 min for each time, and then mounted on slide glass. Thereafter, the samples were observed using confocal laser scanning microscope A1 (Nikon).

RAW264.7 cells [6] = assay: TNF-alpha secretion ELISA assay; format: cell-based; settings: RAW 264.7 cells; 100 nM KRS proteins or KRS exosomes 0.05, 0.5, 5 ug
Method: RAW264.7 cells (2×10^4) were incubated in 24-well plate containing DMEM supplemented with 10% FBS and 1% antibiotic for 12 hr, and starved in serum starvation media for 2 hr. 100 nM KRS protein (WT, ▴N12 each) and KRS exosomes (0.05, 0.5, 5 ug) were added, followed by treatment for 6 hr. Thereafter, cell media were collected by centrifugation at 3,000 g for 5 min. TNF-alpha secreted from the cells was detected using the TNF-alpha ELISA kit (Pharmingen, BD Science) according to the manufacturer's protocol.

Cytokine activity of KRS = settings: WT compared with N-terminus truncated KRS
RAW264.7 cells [7] = assay: Luminex screening assays (bead-based multiplex kits); format: cell-based; settings: 100 nM KRS proteins or KRS exosomes 5 ug/ml; 12 hr
Method: RAW264.7 cells were incubated in 12-well plate using DMEM media containing 10% FBS and 1% antibiotic for 12 hr, and starved in serum starvation media for 2 hr. KRS proteins (WT, ▴N12 each) and KRS exosomes (5 ug) in different amounts were respectively added to the media. After 12 hr, conditioned media were collected, and spun down through centrifugation at 3,000 g for 10 min. For multiplex assay, premixed beads for TNF-alpha, mCRG-2, IL-6, mIL-lbeta, mIL-12, mIL-10, MMP9, INF-gamma, mMIP3a, and CXCL10 were purchased from R&D Science, and used according to the manufacturer's protocol. Each sample were analyzed by BioRad Bioplex 200 system and software.

RAW264.7 cells [8] = assay: Wound healing assay; format: cell-based; settings: RAW 264.7 monolayer; 100 nM KRS proteins or KRS exosomes 0.05, 0.5, 5 ug; 12 hr
Method: RAW264.7 cells were dispensed on the coverslip, and grown to >95% confluency. Subsequently, the RAW 264.7 monolayer was scratched to create wounds, and then the wounds were treated with 100 nM KRS proteins (WT, ▴N12) or KRS exosomes (0.05, 0.5, 5 ug) in their respective concentrations, followed by incubation for 12 hr. The cell morphology of cells was observed using microscopy.

Compound: COC(=O)C[C@H](NC(=O)[C@H](C)NC(=O)[C@@H](NC(=O)OCc1ccccc1)C(C)C)C(=O)CF [pan-caspase inhibitor, Z-VAD-FMK] (Cbz-Val-Ala-Asp(OMe)-CH2F)
KRS cleavage after caspase inhibitor treatment (HCT116 cells [1]; GFP-KRS overexpressed cells, serum starvation media, Z-VAD-FMK 14 uM, 1 hr): reduced | KRS secretion after caspase inhibitor treatment (HCT116 cells [2]): reduced

BiFC fluorescence (KRS-syntenin binding) (KRS and syntenin-1 [5]): not observed
Compound: D12A mutant: variant in which Asp, 12th amino acid of KRS WT, is replaced with Ala; not cleaved by caspase-8
exosome secretion of KRS variant compared with WT (HCT116 cells [3]): significantly reduced | cleavage of KRS variant compared with WT (HCT116 cells [1]; GFP-KRS variant overexpressed in HCT116 cells, serum starvation 1 hr): reduced | binding of KRS variant with syntenin-1 compared with WT (KRS and syntenin-1 [4]): less | secretion of KRS variant compared with WT (HCT116 cells [2]): reduced

Compound: KRS WT: full-length human lysyl tRNA synthetase (1-597), SEQ ID NO: 2
TNF-alpha secretion from macrophages (RAW264.7 cells [6]): increasing TNF-alpha secretion | cytokine activity (Cytokine activity of KRS): identical | secretion of IL-6 from macrophages (RAW264.7 cells [7]): induced | secretion of MMP9 from macrophages (RAW264.7 cells [7]): induced | secretion of TNF-alpha from macrophages (luminex) (RAW264.7 cells [7]): induced | secretion of mCRG-2 from macrophages (RAW264.7 cells [7]): induced | migration of macrophages (wound-healing assay) (RAW264.7 cells [8]): increased

Compound: Z-VAD-DQMD [caspase-3 inhibitor]
KRS secretion after caspase inhibitor treatment (HCT116 cells [2]): only caspase-8 inhibitor inhibited KRS secretion

BiFC fluorescence (KRS-syntenin binding) (KRS and syntenin-1 [5]): not observed
Compound: Z-VAD-IETD [caspase-8 inhibitor]
binding between KRS and syntenin increased by starvation (KRS and syntenin-1 [4]; serum starvation medium with or without caspase-8 inhibiting agent, IP of syntenin-1, anti-KRS western blot): reduced | KRS secretion after caspase inhibitor treatment (HCT116 cells [2]): inhibited KRS secretion

Compound: Z-VAD-VEID [caspase-6 inhibitor]
KRS secretion after caspase inhibitor treatment (HCT116 cells [2]): only caspase-8 inhibitor inhibited KRS secretion

Compound: si-KRS: si-RNA against KRS from Invitrogen: GGGAAGACCCAUACCCACACAAGUU, AACUUGUGUGGGUAUGGGUCUUCCC (chemistry not given here)
KRS proteins existing in the exosome (HCT116 cells [3]; exosomes purified from si-RNA treated cells, 48 hr then serum starvation 12 hr, vs si-con): reduced

Compound: ▴N12: KRS fragment 13-597 a.a., the peptide of SEQ ID NO: 1, first 12 N-terminal amino acids deleted
TNF-alpha secretion from macrophages (RAW264.7 cells [6]): increasing TNF-alpha secretion | cytokine activity (Cytokine activity of KRS): identical | secretion of IL-6 from macrophages (RAW264.7 cells [7]): induced | secretion of MMP9 from macrophages (RAW264.7 cells [7]): induced | secretion of TNF-alpha from macrophages (luminex) (RAW264.7 cells [7]): induced | secretion of mCRG-2 from macrophages (RAW264.7 cells [7]): induced | migration of macrophages (wound-healing assay) (RAW264.7 cells [8]): increased

Compound: ▴c5: deletion mutant KRS with truncated C-terminus, 1-592 a.a of SEQ ID NO: 2
exosome secretion of KRS variant compared with WT (HCT116 cells [3]): reduced | binding of KRS variant with syntenin-1 compared with WT (KRS and syntenin-1 [4]): significantly deteriorated | secretion of KRS variant compared with WT (HCT116 cells [2]): less

Source: patent publication US20170073659A1, “NOVEL LYSYL TRNA SYNTHETASE FRAGMENT AND MICROVESICLES COMPRISING SAME” (Medicinal Bioconvergence Research Center, priority 2014, published 2017)
